≈ marks a conversion by molar mass, not a printed value. Where a SMILES comes first, the peptide text is derived from it. Bridges are numbered along the chain shown (N, C = ends). [ ]: non-standard residue; d: D form. The star is where a group is joined. Benzoyl(3-Ph) = O=C(c1cccc(-c2ccccc2)c1)*; dDab = NCC[C@@H](N)C(=O)O; hSer = N[C@@H](CCO)C(=O)O; Octanoyl = CCCCCCCC(=O)*; Dab = NCC[C@H](N)C(=O)O
Experiments:
[1] = test system: K. pneumoniae ATCC 13833; test: microbe, parasite or virus in culture; settings: for MIC K. pneumoniae ATCC 13833: ATCC 13833, 18 h
Outline: (§1)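 Broth microdilution; read-out = minimum inhibitory concentration, mg/L. Comparators: polymyxin B, colistin, vancomycin, gentamicin.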

[2] = test system: K. pneumoniae ATCC 700603; test: microbe, parasite or virus in culture; settings: for MIC K. pneumoniae ATCC 700603: ATCC 700603, 18 h
Outline: as §1

[3] = test system: K. pneumoniae BAA 2146; test: microbe, parasite or virus in culture; settings: for MIC K. pneumoniae BAA 2146: BAA 2146, 18 h
Outline: as §1

[4] = test system: P. aeruginosa ATTC 27853; test: microbe, parasite or virus in culture; settings: for MIC P. aeruginosa ATTC 27853: ATTC 27853, 18 h
Outline: as §1

[5] = test system: S. aureus ATCC 25923; test: microbe, parasite or virus in culture; settings: for MIC S. aureus ATCC 25923: ATCC 25923, 18 h
Outline: as §1

[6] = in vitro; settings: human
Outline: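 HK-2 cells seeded 2000 cells/well in DMEM/F12 with 10% FBS, grown 24 h, then exposed to compounds (300 µM to 2.3 µM, 2-fold series; colistin/polymyxin B 1 mM to 7.8 µM) for 24 h at 37 °C. LDH in medium read at 450 nm after 30 min; cytotoxicity % relative to 1% Triton X-100 and untreated cells.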

[7] = test system: ATCC reference strains (Escherichia coli, Klebsiella pneumoniae, A. baumannii, and P. aeruginosa)
Procedure: All compounds synthesised in this study were assessed for their minimum inhibitory concentrations (MIC, mg/L) by broth microdilution assay against five antibiotic-sensitive and resistant ATCC reference strains covering the Gram-negative ESKAPE pathogens (Escherichia coli, Klebsiella pneumoniae, A. baumannii, and P. aeruginosa) (Table 1, Table 2 and Table 3). Staphylococcus aureus was also included as a representative Gram-positive bacterial strain. […] Polymyxin B 1, colistin 2, vancomycin and gentamicin were used as positive inhibitor comparator compounds. Compounds were counter-screened against human proximal tubular epithelial cells (HK-2), using LDH release as a general indicator of cellular toxicity.

[8] = test system: A. baumannii ATCC 19606; test: microbe, parasite or virus in culture; settings: for MIC A. baumannii ATCC 19606: ATCC 19606, 18 h
Outline: as §1

[9] = test system: E. coli ATCC 25922; test: microbe, parasite or virus in culture; settings: for MIC E. coli ATCC 25922: ATCC 25922, 18 h
Outline: as §1

[10] = test system: P. aeruginosa FADDI PA070; test: microbe, parasite or virus in culture; settings: for MIC P. aeruginosa FADDI PA070: FADDI PA070, 18 h
Outline: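 Compounds are diluted in broth, the strain is added, and the lowest concentration that inhibits growth is taken as the MIC (mg/L).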

Row | SMILES | MIC K. pneumoniae ATCC 13833 [1] [µg/mL] | MIC K. pneumoniae ATCC 700603 [2] [µg/mL] | MIC K. pneumoniae BAA 2146 [3] [µg/mL] | MIC P. aeruginosa ATTC 27853 [4] [µg/mL] | MIC S. aureus ATCC 25923 [5] [µg/mL] | CC50 at 24 h [6] [µM] | MIC for most strains [7] [µg/mL] | MIC A. baumannii ATCC 19606 [8] [µg/mL] | MIC E. coli ATCC 25922 [9] [µg/mL] | MIC P. aeruginosa FADDI PA070 [10] [µg/mL] | MIC ([8]; Acinetobacter baumannii, ATCC19606, 18 h, read-out: MIC A. baumannii ATCC 19606) [µg/mL] | MIC ([9]; Escherichia coli, ATCC25922, 18 h, read-out: MIC E. coli ATCC 25922) [µg/mL] | MIC ([1]; Klebsiella pneumoniae, ATCC13833, 18 h, read-out: MIC K. pneumoniae ATCC 13833) [µg/mL] | MIC ([2]; Klebsiella pneumoniae, ATCC700603, 18 h, read-out: MIC K. pneumoniae ATCC 700603) [µg/mL] | MIC ([3]; Klebsiella pneumoniae, BAA2146, 18 h, read-out: MIC K. pneumoniae BAA 2146) [µg/mL] | MIC ([4]; Pseudomonas aeruginosa, ATTC27853, 18 h, read-out: MIC P. aeruginosa ATTC 27853) [µg/mL] | MIC ([10]; Pseudomonas aeruginosa, FADDIPA070, 18 h, read-out: MIC P. aeruginosa FADDI PA070) [µg/mL] | MIC ([5]; Staphylococcus aureus, ATCC25923, 18 h, read-out: MIC S. aureus ATCC 25923) [µg/mL]
1 | CCCCCCCC(=O)N[C@H](C(=O)N[C@@H](CCN)C(=O)N[C@H]1CCNC(=O)[C@H]([C@@H](C)O)NC(=O)[C@H](CCN)NC(=O)[C@H](CCN)NC(=O)[C@H](CC(C)C)NC(=O)[C@@H](Cc2ccccc2)NC(=O)[C@H](CCN)NC1=O)[C@@H](C)O [Compound 8] (Octanoyl-T[Dab][Dab][Dab][dF]L[Dab][Dab]T; lactam 3-C) | 1 (≈ 0.918 µM) | 2 (≈ 1.84 µM) | 2 (≈ 1.84 µM) | 0.5 (≈ 0.459 µM) | >32 | 209 | 1 to 2 |  |  |  |  |  |  |  |  |  |  | 
2 | CC(C)C[C@@H]1NC(=O)[C@@H](Cc2ccccc2)NC(=O)[C@H](CCN)NC(=O)[C@@H](NC(=O)[C@@H](CCN)NC(=O)[C@@H](NC(=O)c2cccc(-c3ccccc3)c2)[C@@H](C)O)CCNC(=O)[C@H]([C@@H](C)O)NC(=O)[C@H](CCN)NC(=O)[C@H](CCN)NC1=O [Compound 27] ({Benzoyl(3-Ph)}-T[dDab][Dab][Dab][dF]L[Dab][Dab]T; lactam 3-C) | 32 (≈ 28 µM) | 16 (≈ 14 µM) | 8 (≈ 7 µM) | 2 (≈ 1.75 µM) | >32 | > 300 |  | >32 | 4 (≈ 3.5 µM) | 8 (≈ 7 µM) |  |  |  |  |  |  |  | 
3 | CCCCCCCC(=O)N[C@@H](CC(N)=O)C(=O)N[C@H](CCN)C(=O)N[C@H]1CCNC(=O)[C@H]([C@@H](C)O)NC(=O)[C@H](CCN)NC(=O)[C@H](CCN)NC(=O)[C@H](CC(C)C)NC(=O)[C@@H](Cc2ccccc2)NC(=O)[C@H](CCN)NC1=O [Compound 28] (Octanoyl-N[dDab][Dab][Dab][dF]L[Dab][Dab]T; lactam 3-C) | >32 | >32 | >32 | 4 (≈ 3.63 µM) | >32 | > 300 |  | >32 | 32 (≈ 29 µM) | 8 (≈ 7.26 µM) |  |  |  |  |  |  |  | 
4 | CCCCCCCC(=O)N[C@@H](Cc1ccc(O)cc1)C(=O)N[C@H](CCN)C(=O)N[C@H]1CCNC(=O)[C@H]([C@@H](C)O)NC(=O)[C@H](CCN)NC(=O)[C@H](CCN)NC(=O)[C@H](CC(C)C)NC(=O)[C@@H](Cc2ccccc2)NC(=O)[C@H](CCN)NC1=O [Compound 29] (Octanoyl-Y[dDab][Dab][Dab][dF]L[Dab][Dab]T; lactam 3-C) | >32 | 16 (≈ 13.9 µM) | >32 | 4 (≈ 3.47 µM) | >32 | > 300 |  | >32 | 16 (≈ 13.9 µM) | 8 (≈ 6.95 µM) |  |  |  |  |  |  |  | 
5 | CCCCCCCC(=O)N[C@@H](CO)C(=O)N[C@H](CCN)C(=O)N[C@H]1CCNC(=O)[C@H]([C@@H](C)O)NC(=O)[C@H](CCN)NC(=O)[C@H](CCN)NC(=O)[C@H](CC(C)C)NC(=O)[C@@H](Cc2ccccc2)NC(=O)[C@H](CCN)NC1=O [Compound 30] (Octanoyl-S[dDab][Dab][Dab][dF]L[Dab][Dab]T; lactam 3-C) | >32 | 4 (≈ 3.72 µM) | 8 (≈ 7.44 µM) | 1 (≈ 0.93 µM) | >32 | > 300 |  | >32 | 8 (≈ 7.44 µM) | 16 (≈ 14.9 µM) |  |  |  |  |  |  |  | 
6 | CCCCCCCC(=O)N[C@@H](CCO)C(=O)N[C@H](CCN)C(=O)N[C@H]1CCNC(=O)[C@H]([C@@H](C)O)NC(=O)[C@H](CCN)NC(=O)[C@H](CCN)NC(=O)[C@H](CC(C)C)NC(=O)[C@@H](Cc2ccccc2)NC(=O)[C@H](CCN)NC1=O [Compound 31] (Octanoyl-[hSer][dDab][Dab][Dab][dF]L[Dab][Dab]T; lactam 3-C) | >32 | 8 (≈ 7.34 µM) | 8 (≈ 7.34 µM) | 2 (≈ 1.84 µM) | >32 | 181 |  | >32 | 16 (≈ 14.7 µM) | 8 (≈ 7.34 µM) |  |  |  |  |  |  |  | 
7 | CCCCCCCC(=O)N[C@@H](CCC(=O)O)C(=O)N[C@H](CCN)C(=O)N[C@H]1CCNC(=O)[C@H]([C@@H](C)O)NC(=O)[C@H](CCN)NC(=O)[C@H](CCN)NC(=O)[C@H](CC(C)C)NC(=O)[C@@H](Cc2ccccc2)NC(=O)[C@H](CCN)NC1=O [Compound 32] (Octanoyl-E[dDab][Dab][Dab][dF]L[Dab][Dab]T; lactam 3-C) | >32 | 32 (≈ 28.6 µM) | >32 | 4 (≈ 3.58 µM) | >32 | > 300 |  | >32 | >32 | >32 |  |  |  |  |  |  |  | 
8 | CCCCCCCC(=O)NCC(=O)N[C@H](CCN)C(=O)N[C@H]1CCNC(=O)[C@H]([C@@H](C)O)NC(=O)[C@H](CCN)NC(=O)[C@H](CCN)NC(=O)[C@H](CC(C)C)NC(=O)[C@@H](Cc2ccccc2)NC(=O)[C@H](CCN)NC1=O [Compound 33] (Octanoyl-G[dDab][Dab][Dab][dF]L[Dab][Dab]T; lactam 3-C) | >32 | 32 (≈ 30.6 µM) | >32 | 1 (≈ 0.957 µM) | >32 | 262 |  | >32 | 16 (≈ 15.3 µM) | >32 |  |  |  |  |  |  |  | 
9 | CN[C@H](CC(C)C)C(=O)N[C@H]1C(=O)N[C@@H](CC(N)=O)C(=O)N[C@H]2C(=O)N[C@H]3C(=O)N[C@H](C(=O)N[C@H](C(=O)O)c4cc(O)cc(O)c4-c4cc3ccc4O)[C@H](O)c3ccc(c(Cl)c3)Oc3cc2cc(c3O[C@@H]2O[C@H](CO)[C@@H](O)[C@H](O)[C@H]2O[C@H]2C[C@](C)(N)[C@H](O)[C@H](C)O2)Oc2ccc(cc2Cl)[C@H]1O [Vanc, vancomycin, reference compound] |  |  |  |  |  | > 300 |  |  |  |  | > 32 | > 32 | > 32 | > 32 | > 32 | > 32 | > 32 | 2 (≈ 1.38 µM)

From publication PMC6384738, “Structure-Function Studies of Polymyxin B Lipononapeptides” (Molecules, 2019)
